Target: T1, NctB (Shinella sp. HZN7, UniProt A0A075BSX9)
T1 construct: synthetic gene in pET29b (NdeI/XhoI), C-terminal His tag, expressed in E. coli BL21(DE3); FAD-containing flavoenzyme
Test: absorbance spectra before and after SDS/heat release of FAD
Format: binding
Settings: pH 7.5; prosthetic group co-purified with the enzyme

T1 sequence (A0A075BSX9 whole entry): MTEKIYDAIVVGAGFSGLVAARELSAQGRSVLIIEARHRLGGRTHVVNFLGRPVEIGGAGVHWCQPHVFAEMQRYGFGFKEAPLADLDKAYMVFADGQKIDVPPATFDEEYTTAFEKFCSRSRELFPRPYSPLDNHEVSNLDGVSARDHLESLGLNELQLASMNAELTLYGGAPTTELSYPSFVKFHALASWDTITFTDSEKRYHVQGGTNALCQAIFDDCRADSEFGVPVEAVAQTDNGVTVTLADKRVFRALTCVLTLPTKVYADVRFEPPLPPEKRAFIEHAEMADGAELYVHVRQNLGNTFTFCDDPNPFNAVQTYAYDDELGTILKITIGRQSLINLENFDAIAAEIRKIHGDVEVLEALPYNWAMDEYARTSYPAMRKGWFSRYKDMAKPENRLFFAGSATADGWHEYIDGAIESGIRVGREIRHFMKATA

Cc1cc2nc3c(=O)[nH]c(=O)nc-3n(C[C@H](O)[C@H](O)[C@H](O)COP(=O)(O)OP(=O)(O)OC[C@H]3O[C@@H](n4cnc5c(N)ncnc54)[C@H](O)[C@@H]3O)c2cc1C [flavin adenine dinucleotide]
absorbance spectra before and after SDS/heat release of FAD: The extinction coefficient of FAD bound to NctB was then calculated

Source: publication doi:10.1101/2025.05.21.655333v1, “Role of glutamate 292 and lysine 331 in catalysis for the flavoenzyme (S)-6-hydroxynicotine oxidase from Shinella sp. HZN7” (biorxiv, 2025)
